Experimental data: ChEMBL document CHEMBL5653615 (J Biol Chem, 2013)

How the values were obtained:
[1] = molecular target: Serine/threonine-protein kinase pim-1 (Homo sapiens) (UniProt P11309); assay: Inhibition of human PIM1 at 500 nM by HotSpot assay relative to control
[2] = molecular target: Rho-associated protein kinase 1 (Homo sapiens) (UniProt Q13464); assay: Inhibition of human ROCK1 at 500 nM by HotSpot assay relative to control
[3] = molecular target: T1, Mitogen-activated protein kinase 13 (Homo sapiens) (UniProt O15264); assay: Inhibition of human MAPK13 at 500 nM by HotSpot assay relative to control
T1 sequence (whole entry): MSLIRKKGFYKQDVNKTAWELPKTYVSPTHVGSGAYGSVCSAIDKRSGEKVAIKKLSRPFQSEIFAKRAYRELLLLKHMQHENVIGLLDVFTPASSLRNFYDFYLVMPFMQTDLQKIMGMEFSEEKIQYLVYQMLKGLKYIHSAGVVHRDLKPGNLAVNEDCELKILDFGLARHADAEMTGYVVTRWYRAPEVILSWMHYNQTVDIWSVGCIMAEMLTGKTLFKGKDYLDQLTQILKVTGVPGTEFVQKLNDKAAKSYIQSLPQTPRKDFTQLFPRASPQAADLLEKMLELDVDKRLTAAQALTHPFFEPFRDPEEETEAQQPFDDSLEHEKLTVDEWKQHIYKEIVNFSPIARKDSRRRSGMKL

[4] = molecular target: CDK3/Cyclin E (Homo sapiens) (UniProt P24864+Q00526); assay: Inhibition of human CDK3/cyclin E at 500 nM by HotSpot assay relative to control; type: protein-complex assay
[5] = molecular target: Tyrosine-protein kinase Lyn (Homo sapiens) (UniProt P07948); assay: Inhibition of human LYN at 500 nM by HotSpot assay relative to control
[6] = molecular target: Tyrosine-protein kinase Fes/Fps (Homo sapiens) (UniProt P07332); assay: Inhibition of human FES at 500 nM by HotSpot assay relative to control
[7] = molecular target: SRSF protein kinase 2 (Homo sapiens) (UniProt P78362); assay: Inhibition of human SRPK2 at 500 nM by HotSpot assay relative to control
[8] = molecular target: RAC-beta serine/threonine-protein kinase (Homo sapiens) (UniProt P31751); assay: Inhibition of human AKT2 at 500 nM by HotSpot assay relative to control
[9] = molecular target: Glycogen synthase kinase-3 beta (Homo sapiens) (UniProt P49841); assay: Inhibition of human GSK3b at 500 nM by HotSpot assay relative to control
[10] = molecular target: T2, Serine/threonine-protein kinase Chk1 (Homo sapiens) (UniProt O14757); assay: Inhibition of human CHK1 at 500 nM by HotSpot assay relative to control
T2 sequence (whole entry): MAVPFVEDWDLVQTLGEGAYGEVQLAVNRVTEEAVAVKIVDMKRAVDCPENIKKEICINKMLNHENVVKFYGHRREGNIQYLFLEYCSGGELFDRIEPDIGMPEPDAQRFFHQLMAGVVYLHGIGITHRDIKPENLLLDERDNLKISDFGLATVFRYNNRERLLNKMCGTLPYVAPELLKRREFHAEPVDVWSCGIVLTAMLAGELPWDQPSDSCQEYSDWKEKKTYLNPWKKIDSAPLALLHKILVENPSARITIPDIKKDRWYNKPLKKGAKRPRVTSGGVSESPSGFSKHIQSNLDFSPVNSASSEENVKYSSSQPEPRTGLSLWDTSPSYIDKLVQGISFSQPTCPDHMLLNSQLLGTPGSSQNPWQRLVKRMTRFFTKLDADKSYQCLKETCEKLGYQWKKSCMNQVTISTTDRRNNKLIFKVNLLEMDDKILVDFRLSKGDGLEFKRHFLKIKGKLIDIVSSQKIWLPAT

[11] = molecular target: MAP kinase-activated protein kinase 2 (Homo sapiens) (UniProt P49137); assay: Inhibition of human MAPKAPK2 at 500 nM by HotSpot assay relative to control
[12] = molecular target: Serine/threonine-protein kinase PAK 2 (Homo sapiens) (UniProt Q13177); assay: Inhibition of human PAK2 at 500 nM by HotSpot assay relative to control
[13] = molecular target: Serine/threonine-protein kinase 10 (Homo sapiens) (UniProt O94804); assay: Inhibition of human LOK at 500 nM by HotSpot assay relative to control
[14] = molecular target: T3, Myotonin-protein kinase (Homo sapiens) (UniProt Q09013); assay: Inhibition of human DMPK at 500 nM by HotSpot assay relative to control
T3 sequence (whole entry): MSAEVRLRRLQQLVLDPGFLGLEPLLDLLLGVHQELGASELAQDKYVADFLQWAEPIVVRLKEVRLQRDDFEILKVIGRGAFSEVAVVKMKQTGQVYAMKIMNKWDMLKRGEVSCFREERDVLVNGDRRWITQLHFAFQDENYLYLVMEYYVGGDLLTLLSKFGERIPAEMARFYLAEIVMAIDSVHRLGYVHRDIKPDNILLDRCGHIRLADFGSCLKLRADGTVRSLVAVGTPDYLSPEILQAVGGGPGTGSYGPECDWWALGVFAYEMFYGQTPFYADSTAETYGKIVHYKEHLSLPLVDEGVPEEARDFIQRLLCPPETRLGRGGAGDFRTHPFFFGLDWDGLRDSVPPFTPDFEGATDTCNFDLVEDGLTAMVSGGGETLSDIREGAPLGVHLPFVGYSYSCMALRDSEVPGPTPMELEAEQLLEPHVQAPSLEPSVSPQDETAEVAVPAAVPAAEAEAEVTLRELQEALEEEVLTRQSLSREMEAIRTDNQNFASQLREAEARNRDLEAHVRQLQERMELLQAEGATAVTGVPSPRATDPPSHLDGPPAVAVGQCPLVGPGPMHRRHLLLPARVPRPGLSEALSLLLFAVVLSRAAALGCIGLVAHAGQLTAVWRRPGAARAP

[15] = molecular target: Mitogen-activated protein kinase kinase kinase 20 (Homo sapiens) (UniProt Q9NYL2); assay: Inhibition of human MLTK at 500 nM by HotSpot assay relative to control
[16] = molecular target: Wee1-like protein kinase (Homo sapiens) (UniProt P30291); assay: Inhibition of human WEE1 at 500 nM by HotSpot assay relative to control
[17] = molecular target: Mitogen-activated protein kinase 3 (Homo sapiens) (UniProt P27361); assay: Inhibition of human ERK1 at 500 nM by HotSpot assay relative to control
[18] = molecular target: Myosin light chain kinase, smooth muscle (Homo sapiens) (UniProt Q15746); assay: Inhibition of human MYLK at 500 nM by HotSpot assay relative to control
[19] = molecular target: Serine/threonine-protein kinase Nek4 (Homo sapiens) (UniProt P51957); assay: Inhibition of human NEK4 at 500 nM by HotSpot assay relative to control
[20] = molecular target: Protein kinase C alpha type (Homo sapiens) (UniProt P17252); assay: Inhibition of human PKCa at 500 nM by HotSpot assay relative to control

Chain of Glycogen synthase kinase-3 beta (Homo sapiens) (P49841 whole entry, looked up): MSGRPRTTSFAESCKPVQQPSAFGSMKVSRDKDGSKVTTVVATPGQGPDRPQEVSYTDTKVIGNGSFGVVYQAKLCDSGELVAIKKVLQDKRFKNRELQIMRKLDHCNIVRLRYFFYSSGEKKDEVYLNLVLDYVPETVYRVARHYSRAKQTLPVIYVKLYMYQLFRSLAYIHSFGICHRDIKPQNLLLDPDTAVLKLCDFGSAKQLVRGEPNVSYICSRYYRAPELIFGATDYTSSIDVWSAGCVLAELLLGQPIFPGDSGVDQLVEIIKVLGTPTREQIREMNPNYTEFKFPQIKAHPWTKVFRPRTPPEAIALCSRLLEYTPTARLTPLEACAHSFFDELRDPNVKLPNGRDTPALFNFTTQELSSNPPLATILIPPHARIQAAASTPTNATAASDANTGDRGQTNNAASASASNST
Chain of Mitogen-activated protein kinase kinase kinase 20 (Homo sapiens) (Q9NYL2 2-800 limits assumed): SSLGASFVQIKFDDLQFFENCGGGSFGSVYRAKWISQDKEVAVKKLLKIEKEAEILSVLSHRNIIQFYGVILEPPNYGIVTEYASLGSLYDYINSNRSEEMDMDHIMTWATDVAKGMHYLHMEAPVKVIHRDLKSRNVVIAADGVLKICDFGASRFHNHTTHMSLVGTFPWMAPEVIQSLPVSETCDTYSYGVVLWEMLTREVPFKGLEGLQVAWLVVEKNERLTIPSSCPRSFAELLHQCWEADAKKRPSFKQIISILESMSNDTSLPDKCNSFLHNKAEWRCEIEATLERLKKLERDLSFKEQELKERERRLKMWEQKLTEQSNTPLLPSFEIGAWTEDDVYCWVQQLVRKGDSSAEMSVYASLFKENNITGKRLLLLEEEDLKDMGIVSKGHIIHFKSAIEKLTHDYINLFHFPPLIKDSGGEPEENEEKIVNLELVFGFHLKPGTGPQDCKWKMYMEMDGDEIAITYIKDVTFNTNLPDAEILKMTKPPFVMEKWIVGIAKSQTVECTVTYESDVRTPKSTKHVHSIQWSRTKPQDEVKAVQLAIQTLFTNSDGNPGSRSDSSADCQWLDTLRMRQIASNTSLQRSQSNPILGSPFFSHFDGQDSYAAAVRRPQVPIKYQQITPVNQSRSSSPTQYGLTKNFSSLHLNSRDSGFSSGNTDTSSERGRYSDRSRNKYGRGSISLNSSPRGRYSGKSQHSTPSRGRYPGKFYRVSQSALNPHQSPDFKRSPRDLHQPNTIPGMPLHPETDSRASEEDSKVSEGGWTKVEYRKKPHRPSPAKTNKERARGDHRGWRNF
Chain of Serine/threonine-protein kinase Nek4 (Homo sapiens) (P51957 whole entry, looked up): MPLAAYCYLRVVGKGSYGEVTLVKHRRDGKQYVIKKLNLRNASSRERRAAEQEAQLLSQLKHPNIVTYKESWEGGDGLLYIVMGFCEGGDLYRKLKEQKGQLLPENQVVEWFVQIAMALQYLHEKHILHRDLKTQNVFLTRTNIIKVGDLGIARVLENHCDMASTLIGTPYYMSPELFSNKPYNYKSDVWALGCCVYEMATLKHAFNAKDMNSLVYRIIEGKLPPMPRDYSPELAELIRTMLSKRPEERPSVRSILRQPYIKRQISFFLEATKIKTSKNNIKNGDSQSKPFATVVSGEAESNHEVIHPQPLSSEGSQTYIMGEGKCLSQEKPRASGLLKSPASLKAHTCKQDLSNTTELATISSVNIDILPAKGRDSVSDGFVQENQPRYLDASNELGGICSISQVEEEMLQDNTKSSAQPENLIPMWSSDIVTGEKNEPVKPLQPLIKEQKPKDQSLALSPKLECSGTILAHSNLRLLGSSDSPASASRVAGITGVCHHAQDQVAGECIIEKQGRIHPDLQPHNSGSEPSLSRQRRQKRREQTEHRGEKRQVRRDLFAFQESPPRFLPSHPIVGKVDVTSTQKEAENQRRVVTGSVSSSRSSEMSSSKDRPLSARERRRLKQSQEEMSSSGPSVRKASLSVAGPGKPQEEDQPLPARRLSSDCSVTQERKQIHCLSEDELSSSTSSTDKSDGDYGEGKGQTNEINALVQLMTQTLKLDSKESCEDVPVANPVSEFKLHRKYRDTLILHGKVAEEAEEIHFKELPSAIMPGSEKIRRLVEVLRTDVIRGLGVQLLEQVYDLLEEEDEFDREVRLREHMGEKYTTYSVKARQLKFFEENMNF
Chain of Myosin light chain kinase, smooth muscle (Homo sapiens) (Q15746 whole entry): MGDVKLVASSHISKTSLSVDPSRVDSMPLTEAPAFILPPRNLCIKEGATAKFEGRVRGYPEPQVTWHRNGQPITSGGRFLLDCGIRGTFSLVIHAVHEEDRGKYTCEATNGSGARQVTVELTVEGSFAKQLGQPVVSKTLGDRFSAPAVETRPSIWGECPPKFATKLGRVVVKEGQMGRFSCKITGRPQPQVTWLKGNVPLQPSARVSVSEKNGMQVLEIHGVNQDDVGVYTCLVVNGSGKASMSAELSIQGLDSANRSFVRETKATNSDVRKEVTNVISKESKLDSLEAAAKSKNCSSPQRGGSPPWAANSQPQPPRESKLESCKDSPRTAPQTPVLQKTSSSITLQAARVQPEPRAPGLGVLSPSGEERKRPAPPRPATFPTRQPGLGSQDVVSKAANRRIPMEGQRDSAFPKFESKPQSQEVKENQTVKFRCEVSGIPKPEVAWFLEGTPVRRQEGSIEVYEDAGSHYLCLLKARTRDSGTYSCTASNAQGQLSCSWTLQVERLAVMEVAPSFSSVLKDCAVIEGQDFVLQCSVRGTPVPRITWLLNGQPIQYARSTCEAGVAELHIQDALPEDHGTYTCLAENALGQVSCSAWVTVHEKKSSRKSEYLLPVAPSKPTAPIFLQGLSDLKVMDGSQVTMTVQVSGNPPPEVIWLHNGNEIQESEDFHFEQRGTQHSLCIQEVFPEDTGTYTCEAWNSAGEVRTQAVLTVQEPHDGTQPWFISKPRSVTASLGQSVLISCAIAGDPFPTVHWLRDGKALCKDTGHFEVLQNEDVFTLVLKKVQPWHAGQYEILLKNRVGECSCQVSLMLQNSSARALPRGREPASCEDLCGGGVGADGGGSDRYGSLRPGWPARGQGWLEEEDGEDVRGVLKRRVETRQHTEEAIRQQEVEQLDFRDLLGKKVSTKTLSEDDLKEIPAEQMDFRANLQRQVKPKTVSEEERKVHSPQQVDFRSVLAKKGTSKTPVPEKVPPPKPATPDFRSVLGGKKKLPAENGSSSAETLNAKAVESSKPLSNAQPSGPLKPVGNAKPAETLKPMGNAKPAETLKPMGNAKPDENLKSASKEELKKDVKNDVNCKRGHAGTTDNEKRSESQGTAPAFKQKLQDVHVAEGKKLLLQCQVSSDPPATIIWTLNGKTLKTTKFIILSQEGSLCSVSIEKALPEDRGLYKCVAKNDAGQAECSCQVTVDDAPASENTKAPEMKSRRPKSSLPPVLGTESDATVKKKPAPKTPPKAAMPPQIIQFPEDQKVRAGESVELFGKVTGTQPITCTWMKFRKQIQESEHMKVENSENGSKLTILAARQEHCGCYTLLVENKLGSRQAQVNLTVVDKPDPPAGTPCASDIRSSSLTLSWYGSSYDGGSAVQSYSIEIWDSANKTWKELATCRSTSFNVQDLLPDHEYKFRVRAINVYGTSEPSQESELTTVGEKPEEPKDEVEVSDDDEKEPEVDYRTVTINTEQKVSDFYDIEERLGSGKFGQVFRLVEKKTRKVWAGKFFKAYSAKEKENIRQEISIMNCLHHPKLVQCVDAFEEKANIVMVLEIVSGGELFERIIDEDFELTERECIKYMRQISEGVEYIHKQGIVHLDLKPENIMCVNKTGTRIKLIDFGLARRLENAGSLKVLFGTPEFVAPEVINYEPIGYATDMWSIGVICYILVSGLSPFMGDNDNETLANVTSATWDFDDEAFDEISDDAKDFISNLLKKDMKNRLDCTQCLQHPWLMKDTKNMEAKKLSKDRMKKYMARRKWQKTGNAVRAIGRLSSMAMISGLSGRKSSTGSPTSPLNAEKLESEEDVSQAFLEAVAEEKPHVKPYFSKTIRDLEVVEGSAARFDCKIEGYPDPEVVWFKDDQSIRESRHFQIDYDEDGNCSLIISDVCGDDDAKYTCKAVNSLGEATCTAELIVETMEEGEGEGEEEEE
Chain of MAP kinase-activated protein kinase 2 (Homo sapiens) (P49137 whole entry, looked up): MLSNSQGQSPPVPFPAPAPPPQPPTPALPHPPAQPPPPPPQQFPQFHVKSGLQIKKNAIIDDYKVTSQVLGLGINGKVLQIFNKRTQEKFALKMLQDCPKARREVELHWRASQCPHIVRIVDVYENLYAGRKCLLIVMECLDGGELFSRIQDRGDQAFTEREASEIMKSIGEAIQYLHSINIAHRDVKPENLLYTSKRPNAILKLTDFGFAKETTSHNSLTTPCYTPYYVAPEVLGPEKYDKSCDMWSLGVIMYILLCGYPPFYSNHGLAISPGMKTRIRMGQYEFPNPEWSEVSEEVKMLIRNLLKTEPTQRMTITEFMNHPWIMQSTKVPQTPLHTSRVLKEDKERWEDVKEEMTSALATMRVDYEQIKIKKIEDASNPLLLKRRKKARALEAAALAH

| SMILES | inhibition [1] [%] | inhibition [2] [%] | inhibition [3] [%] | inhibition [4] [%] | inhibition [5] [%] | inhibition [6] [%] | inhibition [7] [%] | inhibition [8] [%] | inhibition [9] [%] | inhibition [10] [%] | inhibition [11] [%] | inhibition [12] [%] | inhibition [13] [%] | inhibition [14] [%] | inhibition [15] [%] | inhibition [16] [%] | inhibition [17] [%] | inhibition [18] [%] | inhibition [19] [%] | inhibition [20] [%] |
| --- | --- | --- | --- | --- | --- | --- | --- | --- | --- | --- | --- | --- | --- | --- | --- | --- | --- | --- | --- | --- |
| Oc1n[nH]c2nnc(-c3c(-c4ccccc4)nn4ccccc34)cc12 | 0.66 | 3.01 | 3.76 | 1.33 | 2.29 | 0.31 | 0.47 | -5.44 | -9.9 | -1.38 | -5.6 | -1.47 | 5.81 | -3.39 | -0.11 | 20.8 | -2.01 | 1.22 | 5.04 | 14.1 |
| Nc1n[nH]c2nnc(-c3c(-c4ccccc4)nn4ccccc34)cc12 | -0.39 | -0.45 | -0.81 | 3.23 | 5.07 | 2.16 | 26.2 | 2.47 | -9.06 | -3.37 | -5.26 | -0.21 | 29.1 | -2.61 | -1.29 | 7.57 | 34.2 | 1.66 | 11.6 | 12.8 |
